The structures appear in SMILES notation. Where two headings read alike, the source gives them in different places.

This test concerns PA-TU-8902 cells. The test is described as follows: Non-anchorage-dependent cell growth inhibition (spheroid 3D culture), PA-TU-8902. It counts as cell-based, human. As to conditions: KRAS G12V mutant-positive, 3D spheroid, six days, CellTiter-Glo 2.0, read-out: PA-TU-8902 IC50. On the procedure: Test Example 3: Evaluation of Non-Anchorage-Dependent Cell Growth Inhibitory Activity on Human KRAS G12V Mutant-Positive Pancreatic Cancer Line PA-TU-8902, Human KRAS G12D Mutant-Positive Pancreatic Cancer Line AsPC-1 or Human KRAS G12C Mutant-Positive Pancreatic Cancer Line MIA PaCa-2
The non-anchorage-dependent cell growth inhibitory activities of subject compounds were evaluated by spheroid 3D cell culture.
PA-TU-8902 cells, AsPC-1 cells or MIA PaCa-2 cells (RIKEN BRC, RCB2094) were seeded at 36 µL/well on a low-cell-adhesive round bottom 384-well plate (Prime Surface: from Sumitomo Bakelite) to give 5×10^2 cells per well. The PA-TU-8902 cells were under the same conditions as in Test Example 1-1, and the AsPC-1 cells were under the same conditions as in Test Example 1-2. For the MIA PaCa-2 cells, RPMI-1640 medium containing 10% fetal bovine serum was used in the presence of 5% CO2 at 37° C.
The next day, the subject compounds (6-9 points having final concentrations in the range of 3 μM to 0.3 nM) and DMSO, which was the solvent for the subject compounds, as a negative control were diluted 100-fold with a fresh medium and were each added at 4 μL per well. After culturing in the presence of 5% CO2 at 37° C. for six days, CellTiter-Glo 2.0 (from Promega) was added at 20 μL per well. After stirring with a plate mixer (from FINEPCR) at normal temperature for an hour, the luminescent signals were measured with ARVO X3 (from PerkinElmer).
With the signaling value in treatment with DMSO taken as 0% inhibition and with the signaling value in the medium alone without cells taken as 100% inhibition, the 50% inhibition values (IC50) were calculated by Sigmoid-Emax model nonlinear regression analysis.
Background: ATP-based viability assays read luminescence as a measure of living cells.

A word on the IC50: it is the concentration needed to halve the response being measured. `CO[C@@H](C)COc1nc(NC2CN(C(=O)O[C@H]3C[C@@H](N(C)C)C3)C2)c2cc(C3CC3)c(-c3c(C)c(F)cc4[nH]ncc34)c(OCc3ccc(-c4cn([C@H](C(=O)N5C[C@H](O)C[C@H]5C(=O)N[C@@H](CO)c5ccc(-c6scnc6C)nc5)C(C)C)nn4)cc3)c2n1` (atropisomer, axis not shown) [Example 3]: the IC50 (Homo sapiens, PaTu 8902, 144 h) turned out to be 160 nM. With `CO[C@@H](C)COc1cc(OC2CN(C(=O)N3CC[C@@H](N(C)C)C3)C2)c2cc(C3CC3)c(-c3c(C)c(F)cc4[nH]ncc34)c(OCc3ccc(-c4cn([C@H](C(=O)N5C[C@H](O)C[C@H]5C(=O)N[C@@H](CO)c5ccc(-n6cncn6)cc5)C(C)C)nn4)cc3)c2n1` (atropisomer, axis not shown) [Example 7], the IC50 (Homo sapiens, PaTu 8902, 144 h) stood at 81 nM.

On to `CO[C@@H](C)COc1cc(OC2CN(C(=O)N3CC(CN(C)C)C3)C2)c2cc(C3CC3)c(-c3c(C)c(F)cc4[nH]ncc34)c(OCc3ccc(-c4cn([C@H](C(=O)N5C[C@H](O)C[C@H]5C(=O)N[C@@H](CO)c5ccc(N6CCOC6=O)cc5)C(C)C)nn4)cc3)c2n1` (atropisomer, axis not shown) [Example 8], for which, for the setting “Homo sapiens, PaTu 8902, 144 h”, the concentration for half-maximal inhibition (IC50) came out at 102 nM. On the same count and under the same terms, for `COC(C)(C)COc1cc(OC2CN(C(=O)N[C@H]3C[C@@H](N(C)C)C3)C2)c2cc(C3CC3)c(-c3c(C)c(F)cc4[nH]ncc34)c(OCc3ccc(-c4cn([C@H](C(=O)N5C[C@H](O)C[C@H]5C(=O)N[C@@H](CO)c5ccc(-n6cncn6)cc5)C(C)C)nn4)cc3)c2n1` (atropisomer, axis not shown) [Example 10] the value was 69 nM; for `CO[C@@H](C)COc1nc(OC2CN(C(=O)NCCN3CCCC3)C2)c2cc(C3CC3)c(-c3c(C)c(F)cc4[nH]ncc34)c(OCc3ccc(-c4cn([C@H](C(=O)N5C[C@H](O)C[C@H]5C(=O)N[C@@H](CO)c5ccc(-c6scnc6C)cc5)C(C)C)nn4)cc3)c2n1` (atropisomer, axis not shown) [Example 22], 65 nM; for `CO[C@@H](C)COc1nc(N(C)C2CN(C(=O)CCCN(C)C)C2)c2cc(C3CC3)c(-c3c(C)c(F)cc4[nH]ncc34)c(OCc3ccc(-c4cn([C@H](C(=O)N5C[C@H](O)C[C@H]5C(=O)N[C@@H](CO)c5ccc(-c6scnc6C)cc5)C(C)C)nn4)cc3)c2n1` (atropisomer, axis not shown) [Example 24], 125 nM. With `CO[C@@H](C)COc1nc(NC2CN(C(=O)N3CCN(C)CC3)C2)c2cc(C3CC3)c(-c3c(C)c(F)cc4[nH]ncc34)c(OCc3ccc(-c4cn([C@H](C(=O)N5C[C@H](O)C[C@H]5C(=O)N[C@@H](CO)c5ccc(-n6cncn6)cc5)C(C)C)nn4)cc3)c2n1` (atropisomer, axis not shown) [Example 27], the IC50 (Homo sapiens, PaTu 8902, 144 h) amounted to 122 nM. For `Cc1ncsc1-c1ccc([C@H](CO)NC(=O)[C@@H]2C[C@@H](O)CN2C(=O)[C@H](C(C)C)n2cc(-c3ccc(COc4c(-c5c(C)c(F)cc6[nH]ncc56)c(C5CC5)cc5c(OC6CN(C(=O)NCCN(C)C)C6)nc(OC6CCN(CC(F)F)CC6)nc45)cc3)nn2)cc1` (atropisomer, axis not shown) [Example 31], the IC50 (Homo sapiens, PaTu 8902, 144 h) is 67 nM. As for `Cc1c(F)cc2[nH]ncc2c1-c1c(C2CC2)cc2c(NC3CN(C(=O)NCCN(C)C)C3)nc(OC[C@@H]3CCCO3)nc2c1OCc1ccc(-c2cn([C@H](C(=O)N3C[C@H](O)C[C@H]3C(=O)N[C@@H](CO)c3ccc(-n4cncn4)cc3)C(C)C)nn2)cc1` (atropisomer, axis not shown) [Example 32], the IC50 (Homo sapiens, PaTu 8902, 144 h) worked out at 105 nM. Turning to `Cc1ncsc1-c1ccc([C@H](CO)NC(=O)[C@@H]2C[C@@H](O)CN2C(=O)[C@H](C(C)C)n2cc(-c3ccc(COc4c(-c5c(C)c(F)cc6[nH]ncc56)c(C5CC5)cc5c(N(C)C6CN(C(=O)O[C@H]7CCN(C)C7)C6)nc(OC6CCOCC6)nc45)cc3)nn2)cc1` (atropisomer, axis not shown) [Example 33], the IC50 (Homo sapiens, PaTu 8902, 144 h) stood at 103 nM. `CO[C@@H](C)COc1nc(N2CC[C@H]2C(N)=O)c2cc(C3CC3)c(-c3c(C)c(F)cc4[nH]ncc34)c(OCc3ccc(-c4cn([C@H](C(=O)N5C[C@H](O)C[C@H]5C(=O)N[C@@H](CN(C)C)c5ccc(-c6scnc6C)cc5)C(C)C)nn4)cc3)c2n1` (atropisomer, axis not shown) [Example 37]: the IC50 (Homo sapiens, PaTu 8902, 144 h) came to 78 nM. Still for that read-out and setting: for `CO[C@@H](C)COc1nc(NC2CN(C(=O)OCCN(C)C)C2)c2cc(C3CC3)c(-c3c(C)c(F)cc4[nH]ncc34)c(OCc3ccc(-c4cn([C@H](C(=O)N5C[C@H](O)C[C@H]5C(=O)N[C@@H](CO)c5ccc(-c6scnc6C)cc5)C(C)C)nn4)cc3)c2n1` (atropisomer, axis not shown; (M)) [Example 34, 2-(dimethylamino)ethyl 3-({(7M)-6-cyclopropyl-7-(6-fluoro-5-methyl-H-indazol-4-yl)-8-{[4-(1-{(2S)-1-[(2S,4R)-4-hydroxy-2-({(1R)-2-hydroxy-1-[4-(4-methyl-1,3-thiazol-5-yl)phenyl]ethyl}carbamoyl)pyrrolidin-1-yl]-3-methyl-1-oxobutan-2-yl}-1H-1,2,3-triazol-4-yl)phenyl]methoxy}-2-[(2S)-2-methoxypropoxy]quinazolin-4-yl}amino)azetidine-1-carboxylate] the value was 109 nM; for `CC[C@H](C)[C@@H](C(=O)N1C[C@H](O)C[C@H]1C(=O)N[C@@H](CO)c1ccc(-c2scnc2C)cc1)n1cc(-c2ccc(COc3c(-c4c(C)c(F)cc5[nH]ncc45)c(C4CC4)cc4c(O[C@H]5CCN(C(=O)NCCN(C)C)C5)nc(OC[C@H](C)OC)nc34)cc2)nn1` (single isomer, unassigned) [Example 28], 159 nM. As to `Cc1ncsc1-c1ccc([C@H](CO)NC(=O)[C@@H]2C[C@@H](O)CN2C(=O)[C@H](C(C)C)n2cc(-c3ccc(COc4c(-c5c(C)c(F)cc6[nH]ncc56)c(C5CC5)cc5c(OC6CN(C(=O)NCCO)C6)nc(OC6CCOCC6)nc45)cc3)nn2)cc1` [Example 16], the IC50 (Homo sapiens, PaTu 8902, 144 h) is 261 nM.

In the case of `Cc1c(F)cc2[nH]ncc2c1-c1c(C2CC2)cc2c(OC3CN(C(=O)NCCN(C)C)C3)nc(OC3CCOCC3)nc2c1OCc1ccc(-c2cn([C@H](C(=O)N3C[C@H](O)C[C@H]3C(=O)N[C@@H](CO)c3ccc(-n4cccn4)cc3)C(C)C)nn2)cc1` [Example 30], the IC50 (Homo sapiens, PaTu 8902, 144 h) was determined as 235 nM. Consider `Cc1ncsc1-c1ccc([C@H](CO)NC(=O)[C@@H]2C[C@@H](O)CN2C(=O)[C@H](C(C)C)n2cc(-c3ccc(COc4c(-c5c(C)c(F)cc6[nH]ncc56)c(C5CC5)cc5c(OC6CN(C(=O)NCCN(C)C)C6)nc(OCC(C)(C)CN(C)C)nc45)cc3)nn2)cc1` [Example 36], for which the IC50 (Homo sapiens, PaTu 8902, 144 h) came to 143 nM.

As to `Cc1ncsc1-c1ccc([C@H](CO)NC(=O)[C@@H]2C[C@@H](O)CN2C(=O)[C@H](C(C)C)n2cc(-c3ccc(COc4c(-c5c(C)c(F)cc6[nH]ncc56)c(C5CC5)cc5c(N6CC(C#N)C6)nc(OC[C@@H]6CCN(C)C6)nc45)cc3)nn2)cc1` [Example 38], the IC50 (Homo sapiens, PaTu 8902, 144 h) was determined as 177 nM. Regarding `Cc1ncsc1-c1ccc([C@H](CCO)NC(=O)[C@@H]2C[C@@H](O)CN2C(=O)[C@H](C(C)C)n2cc(-c3ccc(COc4c(-c5c(C)c(F)cc6[nH]ncc56)c(C5CC5)cc5c(NC6CN(C(=O)NCCN(C)C)C6)nc(OC6CCOCC6)nc45)cc3)nn2)cc1` [Example 39, (4R)-1-[(2S)-2-(4-{4-[({(7M)-6-cyclopropyl-4-[(1-{[2-(dimethylamino)ethyl]carbamoyl}azetidin-3-yl)oxy]-7-(6-fluoro-5-methyl-1H-indazol-4-yl)-2-[(oxan-4-yl)oxy]quinazolin-8-yl}oxy)methyl]phenyl}-1H-1,2,3-triazol-1-yl)-3-methylbutanoyl]-4-hydroxy-N-{(1S)-3-hydroxy-1-[4-(4-methyl-1,3-thiazol-5-yl)phenyl]propyl}-L-prolinamide], the IC50 (Homo sapiens, PaTu 8902, 144 h) is 52 nM. Regarding `CO[C@@H](C)COc1cc(OC2CN(C(=O)NCCN(C)C)C2)c2cc(C3CC3)c(-c3c(C)c(F)cc4[nH]ncc34)c(OCc3ccc(-c4cn([C@H](C(=O)N5C[C@H](O)C[C@H]5C(=O)N[C@@H](CO)c5ccc(-c6scnc6C)cc5)C(C)C)nn4)cc3)c2n1` [Example 43, (4R)-1-[(2S)-2-(4-{4-[({(7M)-6-cyclopropyl-4-[(1-{[2-(dimethylamino)ethyl]carbamoyl}azetidin-3-yl)oxy]-7-(6-fluoro-5-methyl-1H-indazol-4-yl)-2-[(2S)-2-methoxypropoxy]quinolin-8-yl}oxy)methyl]phenyl}-1H-1,2,3-triazol-1-yl)-3-methylbutanoyl]-4-hydroxy-N-{(1R)-2-hydroxy-1-[4-(4-methyl-1,3-thiazol-5-yl)phenyl]ethyl}-L-prolinamide], the IC50 was found to be 61 nM.

(Values after patent publication US20260049072A1, “HETEROCYCLIC COMPOUND FOR INDUCING DEGRADATION OF MUTANT KRAS PROTEIN” (Astellas Pharma Inc., priority 2022, published 2026).)
